Data reported in PubChem BioAssay AID1963850 (Molecular Pharmacology Branch, DTP, NCI, 2024).

Test system: 192522-019-R-J2-PDC complex tumor spheroid viability
Assay: Anticancer human tumor 192522-019-R-J2-PDC patient-derived colon adenocarcinoma cell line growth inhibition [POLQ]
Conditions: for IC50: curve of first compound; for viability, T/C: stronger effect = lower value
In short: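 Complex spheroid viability model combining PDC tumour cells with endothelial (HUVEC) and MSC stromal cells. Novobiocin, ART-558 or RP6685 were tested singly and in combination with standard and investigational anticancer drugs. Each was titrated in half-log steps from near clinical Cmax, or from 10 microM where Cmax was unknown.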

[1] = second compound 0.0316 µM, first compound 0.0316 µM
[2] = second compound 0.0316 µM, first compound 0.1 µM
[3] = second compound 0.0316 µM, first compound 0.316 µM
[4] = second compound 0.0316 µM, first compound 1 µM
[5] = second compound 0.0316 µM, first compound 3.16 µM
[6] = second compound 0.0316 µM, first compound 10 µM
[7] = second compound 0.1 µM, first compound 0.0316 µM
[8] = second compound 0.1 µM, first compound 0.1 µM
[9] = second compound 0.1 µM, first compound 0.316 µM
[10] = second compound 0.1 µM, first compound 1 µM
[11] = second compound 0.1 µM, first compound 3.16 µM
[12] = second compound 0.1 µM, first compound 10 µM
[13] = second compound 0.316 µM, first compound 0.0316 µM
[14] = second compound 0.316 µM, first compound 0.1 µM
[15] = second compound 0.316 µM, first compound 0.316 µM
[16] = second compound 0.316 µM, first compound 1 µM
[17] = second compound 0.316 µM, first compound 3.16 µM
[18] = second compound 0.316 µM, first compound 10 µM
[19] = second compound 1 µM, first compound 0.0316 µM
[20] = second compound 1 µM, first compound 0.1 µM
[21] = second compound 1 µM, first compound 0.316 µM
[22] = second compound 1 µM, first compound 1 µM
[23] = second compound 1 µM, first compound 3.16 µM
[24] = second compound 1 µM, first compound 10 µM
[25] = second compound 3.16 µM, first compound 0.0316 µM
[26] = second compound 3.16 µM, first compound 0.1 µM
[27] = second compound 3.16 µM, first compound 0.316 µM
[28] = second compound 3.16 µM, first compound 1 µM
[29] = second compound 3.16 µM, first compound 3.16 µM
[30] = second compound 3.16 µM, first compound 10 µM
[31] = second compound 10 µM, first compound 0.0316 µM
[32] = second compound 10 µM, first compound 0.1 µM
[33] = second compound 10 µM, first compound 0.316 µM
[34] = second compound 10 µM, first compound 1 µM
[35] = second compound 10 µM, first compound 3.16 µM
[36] = second compound 10 µM, first compound 10 µM
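Note: spheroids exposed to drugs for seven days before reading.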
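Throughout, for viability, T/C: 100% = DMSO vehicle control viability in luminescence.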

CNCc1ccc(-c2[nH]c3cc(F)cc4c3c2CCNC4=O)cc1 + Cc1cccc(N(C)C(=O)C2C(O)CCN2c2nc(C)cc(C(F)(F)F)c2C#N)c1
IC50 (second compound 0.0316 µM): > 10 µM | IC50 (second compound 0.1 µM): > 10 µM | IC50 (second compound 0.316 µM): > 10 µM | IC50 (second compound 1 µM): > 10 µM | IC50 (second compound 3.16 µM): > 10 µM | IC50 (second compound 10 µM): > 10 µM | viability, T/C [1]: 109% | viability, T/C [2]: 96.2% | viability, T/C [3]: 96.8% | viability, T/C [4]: 100% | viability, T/C [5]: 121% | viability, T/C [6]: 91.2% | viability, T/C [7]: 103% | viability, T/C [8]: 104% | viability, T/C [9]: 112% | viability, T/C [10]: 108% | viability, T/C [11]: 101% | viability, T/C [12]: 111% | viability, T/C [13]: 101% | viability, T/C [14]: 113% | viability, T/C [15]: 111% | viability, T/C [16]: 103% | viability, T/C [17]: 106% | viability, T/C [18]: 102% | viability, T/C [19]: 108% | viability, T/C [20]: 115% | viability, T/C [21]: 103% | viability, T/C [22]: 112% | viability, T/C [23]: 104% | viability, T/C [24]: 110% | viability, T/C [25]: 113% | viability, T/C [26]: 113% | viability, T/C [27]: 102% | viability, T/C [28]: 102% | viability, T/C [29]: 122% | viability, T/C [30]: 110% | viability, T/C [31]: 107% | viability, T/C [32]: 106% | viability, T/C [33]: 112% | viability, T/C [34]: 107% | viability, T/C [35]: 113% | viability, T/C [36]: 108%

COc1ccc([C@@H](O)c2cc(-c3ncnc4cc(N5CCOCC5)ccc34)c(F)cc2Cl)nn1 + Cc1cccc(N(C)C(=O)C2C(O)CCN2c2nc(C)cc(C(F)(F)F)c2C#N)c1
IC50 (second compound 0.0316 µM): > 10 µM | IC50 (second compound 0.1 µM): > 10 µM | IC50 (second compound 0.316 µM): > 10 µM | IC50 (second compound 1 µM): > 10 µM | IC50 (second compound 3.16 µM): > 10 µM | IC50 (second compound 10 µM): > 10 µM | viability, T/C [1]: 102% | viability, T/C [2]: 86% | viability, T/C [3]: 103% | viability, T/C [4]: 83.1% | viability, T/C [5]: 85.9% | viability, T/C [6]: 51.8% | viability, T/C [7]: 100% | viability, T/C [8]: 87.5% | viability, T/C [9]: 90.1% | viability, T/C [10]: 90.8% | viability, T/C [11]: 78.9% | viability, T/C [12]: 61.8% | viability, T/C [13]: 104% | viability, T/C [14]: 95.7% | viability, T/C [15]: 102% | viability, T/C [16]: 91.3% | viability, T/C [17]: 84.9% | viability, T/C [18]: 65% | viability, T/C [19]: 98.9% | viability, T/C [20]: 94.7% | viability, T/C [21]: 93.7% | viability, T/C [22]: 97.4% | viability, T/C [23]: 89.9% | viability, T/C [24]: 62.4% | viability, T/C [25]: 101% | viability, T/C [26]: 100% | viability, T/C [27]: 105% | viability, T/C [28]: 94.8% | viability, T/C [29]: 95.1% | viability, T/C [30]: 64.6% | viability, T/C [31]: 106% | viability, T/C [32]: 96.1% | viability, T/C [33]: 104% | viability, T/C [34]: 99.6% | viability, T/C [35]: 89% | viability, T/C [36]: 52.6%
